According to patent publication US10294234B2, “HIV inhibitor compounds” (priority 2017, dated 2019):
pEC50: −log10 of the molar value. Read-outs that look alike come from different tables or passages of the source.

Tested on: HIV-1 (IIIB) in MT-4 cells
Experiment: MT-4 HIV assay
Format: cell-based
In short: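 MT-4 cells infected with HIV-1 IIIB (1:250 stock dilution) were incubated with 1:3 serially diluted compounds in RPMI with 10% FBS for 5 days at 37 °C. Cell Titer Glo luminescence was the readout. Plates included mock-infected wells, no-drug wells and 5 uM AZT controls.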

[1] = Human immunodeficiency virus 1, MT4, 120 h, HIV-1 (IIIB), MT-4 cells, 5 days, Cell Titer Glo, read-out: EC50

SMILES	pEC50 [1]	further results
COC(=O)N[C@H](C(=O)N[C@@H](Cc1ccc(C#Cc2ccc(N3C[C@H]4C[C@@H]3CN4C3COC3)nc2)cc1)[C@@H](O)CN(Cc1c(F)cc(-c2ccc(F)cn2)cc1F)NC(=O)[C@@H](NC(=O)OC)C(C)(C)C(F)(F)F)C(C)(C)C(F)(F)F [Example 135, Methyl ((5S,10S,11S,14S)-8-(2,6-difluoro-4-(5-fluoropyridin-2-yl)benzyl)-16,16,16-trifluoro-10-hydroxy-15,15-dimethyl-11-(4-((6-((1R,4R)-5-(oxetan-3-yl)-2,5 diazabicyclo[2.2.1]heptan-2-yl)pyridin-3-yl)ethynyl)benzyl)-3,6,13-trioxo-5-(1,1,1-trifluoro-2-methylpropan-2-yl)-2-oxa-4,7,8,12-tetraazahexadecan-14-yl)carbamate]	8.44	–
COC(=O)N[C@H](C(=O)N[C@@H](Cc1ccc(C#Cc2ccc(N3CCN4CCOC[C@H]4C3)nc2)cc1)[C@@H](O)CN(Cc1c(F)cc(-c2ccn(C3CC3)n2)cc1F)NC(=O)[C@@H](NC(=O)OC)C(C)(C)C(F)(F)F)C(C)(C)C(F)(F)F [Example 136, methyl ((5S,8S,9S,14S)-11-(4-(1-cyclopropyl-1H-pyrazol-3-yl)-2,6-difluorobenzyl)-16,16,16-trifluoro-8-(4-((6-((R)-hexahydropyrazino[2,1-c][1,4]oxazin-8(1H)-yl)pyridin-3-yl)ethynyl)benzyl)-9-hydroxy-15,15-dimethyl-3,6,13-trioxo-5-(1,1,1-trifluoro-2-methylpropan-2-yl)-2-oxa-4,7,11,12-tetraazahexadecan-14-yl)carbamate]	8.41	–
COC(=O)N[C@H](C(=O)N[C@@H](Cc1ccc(C#Cc2ccc(N3CCN4CCOC[C@H]4C3)nc2)cc1)[C@@H](O)CN(Cc1c(F)cc(-c2cc(F)ccn2)cc1F)NC(=O)[C@@H](NC(=O)OC)C(C)(C)C(F)(F)F)C(C)(C)C(F)(F)F [Example 137, Methyl ((5S,8S,9S,14S)-11-(2,6-difluoro-4-(4-fluoropyridin-2-yl)benzyl)-16,16,16-trifluoro-8-(4-((6-((R)-hexahydropyrazino[2,1-c][1,4]oxazin-8(1H)-yl)pyridin-3-yl)ethynyl)benzyl)-9-hydroxy-15,15-dimethyl-3,6,13-trioxo-5-(1,1,1-trifluoro-2-methylpropan-2-yl)-2-oxa-4,7,11,12-tetraazahexadecan-14-yl)carbamate]	8.48	–
COC(=O)N[C@H](C(=O)N[C@@H](Cc1ccc(C#Cc2ccc(N3CC4CC(C3)N4C3COC3)nc2)cc1)[C@@H](O)CN(Cc1c(F)cc(-c2ccc(F)cn2)cc1F)NC(=O)[C@@H](NC(=O)OC)C(C)(C)C(F)(F)F)C(C)(C)C(F)(F)F [Example 139, Methyl ((5S,10S,11S,14S)-8-(2,6-difluoro-4-(5-fluoropyridin-2-yl)benzyl)-16,16,16-trifluoro-10-hydroxy-15,15-dimethyl-11-(4-((6-(6-(oxetan-3-yl)-3,6-diazabicyclo[3.1.1]heptan-3-yl)pyridin-3-yl)ethynyl)benzyl)-3,6,13-trioxo-5-(1,1,1-trifluoro-2-methylpropan-2-yl)-2-oxa-4,7,8,12-tetraazahexadecan-14-yl)carbamateate]	–	pEC50 (HIV-1 (IIIB), MT-4 cells, 5 days, Cell Titer Glo, read-out: EC50): 8.41
COC(=O)N[C@H](C(=O)N[C@@H](Cc1ccc(C#Cc2ccc(N3CC4CC(C3)N4C3COC3)nc2)cc1)[C@@H](O)CN(Cc1c(F)cc(-c2cc(F)ccn2)cc1F)NC(=O)[C@@H](NC(=O)OC)C(C)(C)C(F)(F)F)C(C)(C)C(F)(F)F [Example 140, Methyl ((5S,10S,11S,14S)-8-(2,6-difluoro-4-(4-fluoropyridin-2-yl)benzyl)-16,16,16-trifluoro-10-hydroxy-15,15-dimethyl-11-(4-((6-(6-(oxetan-3-yl)-3,6-diazabicyclo [3.1.1]heptan-3-yl)pyridin-3-yl)ethynyl)benzyl)-3,6,13-trioxo-5-(1,1,1-trifluoro-2-methylpropan-2-yl)-2-oxa-4,7,8,12-tetraazahexadecan-14-yl)carbamate]	8.29	–
COC(=O)N[C@H](C(=O)N[C@@H](Cc1ccc(C#Cc2ccc(N3CCN(C4(C)COC4)CC3)nc2)cc1)[C@@H](O)CN(Cc1c(F)cc(-c2ccn(C(F)F)n2)cc1F)NC(=O)[C@@H](NC(=O)OC)C(C)(C)C(F)(F)F)C(C)(C)C(F)(F)F [Example 141, methyl ((5S,8S,9S,14S)-11-(4-(1-(difluoromethyl)-1H-pyrazol-3-yl)-2,6-difluorobenzyl)-16,16,16-trifluoro-9-hydroxy-15,15-dimethyl-8-(4-((6-(4-(3-methyloxetan-3-yl)piperazin-1-yl)pyridin-3-yl)ethynyl)benzyl)-3,6,13-trioxo-5-(1,1,1-trifluoro-2-methylpropan-2-yl)-2-oxa-4,7,11,12-tetraazahexadecan-14-yl)carbamate]	–	pEC50 (Human immunodeficiency virus 1, MT4, 120 h): 8.18
COC(=O)N[C@H](C(=O)N[C@@H](Cc1ccc(C#Cc2ccc(N3CC4CCC(C3)N4[C@H]3CCOC3)nc2)cc1)[C@@H](O)CN(Cc1c(F)cc(-c2ccn(C(F)F)n2)cc1F)NC(=O)[C@@H](NC(=O)OC)C(C)(C)C(F)(F)F)C(C)(C)C(F)(F)F [Example 142, Methyl ((5S,8S,9S,14S)-11-(4-(1-(difluoromethyl)-1H-pyrazol-3-yl)-2,6-difluorobenzyl)-16,16,16-trifluoro-9-hydroxy-15,15-dimethyl-3,6,13-trioxo-8-(4-((6-(8-((S)-tetrahydrofuran-3-yl)-3,8-diazabicyclo[3.2.1]octan-3-yl)pyridin-3-yl)ethynyl)benzyl)-5-(1,1,1-trifluoro-2-methylpropan-2-yl)-2-oxa-4,7,11,12-tetraazahexadecan-14-yl)carbamate]	8.06	–
COC(=O)N[C@H](C(=O)N[C@@H](Cc1ccc(C#Cc2ccc(N3CC4CCC(C3)N4[C@@H]3CCOC3)nc2)cc1)[C@@H](O)CN(Cc1c(F)cc(-c2ccn(C(F)F)n2)cc1F)NC(=O)[C@@H](NC(=O)OC)C(C)(C)C(F)(F)F)C(C)(C)C(F)(F)F [Example 143, Methyl ((5S,8S,9S,14S)-11-(4-(1-(difluoromethyl)-1H-pyrazol-3-yl)-2,6-difluorobenzyl)-16,16,16-trifluoro-9-hydroxy-15,15-dimethyl-3,6,13-trioxo-8-(4-((6-(8-((R)-tetrahydrofuran-3-yl)-3,8-diazabicyclo[3.2.1]octan-3-yl)pyridin-3-yl)ethynyl)benzyl)-5-(1,1,1-trifluoro-2-methylpropan-2-yl)-2-oxa-4,7,11,12-tetraazahexadecan-14-yl)carbamate]	8.11	–
COC(=O)N[C@H](C(=O)N[C@@H](Cc1ccc(C#Cc2ccc(N3CC4CCC(C3)N4C3COC3)nc2)cc1)[C@@H](O)CN(Cc1ccc(-c2ccccn2)cc1Cl)NC(=O)[C@@H](NC(=O)OC)C(C)(C)C(F)(F)F)C(C)(C)C(F)(F)F [Example 148, Methyl ((5S,8S,9S,14S)-11l-(2-chloro-4-(pyridin-2-yl)benzyl)-16,16,16-trifluoro-9-hydroxy-15,15-dimethyl-8-(4-((6-(8-(oxetan-3-yl)-3,8-diazabicyclo[3.2.1]octan-3-yl)pyridin-3-yl)ethynyl)benzyl)-3,6,13-trioxo-5-(1,1,1-trifluoro-2-methylpropan-2-yl)-2-oxa-4,7,11,12-tetraazahexadecan-14-yl)carbamate]	8.16	–
COC(=O)N[C@H](C(=O)N[C@@H](Cc1ccc(C#Cc2ccc(N3CC4CCC(C3)N4C3COC3)nc2)cc1)[C@@H](O)CN(Cc1c(Cl)cc(-c2ccccn2)cc1Cl)NC(=O)[C@@H](NC(=O)OC)C(C)(C)C(F)(F)F)C(C)(C)C(F)(F)F [Example 149, Methyl ((5S,8S,9S,14S)-11-(2,6-dichloro-4-(pyridin-2-yl)benzyl)-16,16,16-trifluoro-9-hydroxy-15,15-dimethyl-8-(4-((6-(8-(oxetan-3-yl)-3,8-diazabicyclo[3.2.1]octan-3-yl)pyridin-3-yl)ethynyl)benzyl)-3,6,13-trioxo-5-(1,1,1-trifluoro-2-methylpropan-2-yl)-2-oxa-4,7,11,12-tetraazahexadecan-14-yl)carbamate]	8.08	–
COC(=O)N[C@H](C(=O)N[C@@H](Cc1ccc(C#Cc2cnc(N3CC4CCC(C3)N4C3COC3)c(C)c2)cc1)[C@@H](O)CN(Cc1c(F)cc(-c2ccn(C(F)F)n2)cc1F)NC(=O)[C@@H](NC(=O)OC)C(C)(C)C(F)(F)F)C(C)(C)C(F)(F)F [Example 150, Methyl ((5S,8S,9S,14S)-11-(4-(1-(difluoromethyl)-1H-pyrazol-3-yl)-2,6-difluorobenzyl)-16,16,16-trifluoro-9-hydroxy-15,15-dimethyl-8-(4-((5-methyl-6-(8-(oxetan-3-yl)-3,8-diazabicyclo[3.2.1]octan-3-yl)pyridin-3-yl)ethynyl)benzyl)-3,6,13-trioxo-5-(1,1,1-trifluoro-2-methylpropan-2-yl)-2-oxa-4,7,11,12-tetraazahexadecan-14-yl)carbamate]	8.23	–
COC(=O)N[C@H](C(=O)N[C@@H](Cc1ccc(C#Cc2cnc(N3CC4CCC(C3)N4C3COC3)cc2C)cc1)[C@@H](O)CN(Cc1c(F)cc(-c2ccn(C(F)F)n2)cc1F)NC(=O)[C@@H](NC(=O)OC)C(C)(C)C(F)(F)F)C(C)(C)C(F)(F)F [Example 151, Methyl ((5S,8S,9S,14S)-11-(4-(1-(difluoromethyl)-1H-pyrazol-3-yl)-2,6-difluorobenzyl)-16,16,16-trifluoro-9-hydroxy-15,15-dimethyl-8-(4-((4-methyl-6-(8-(oxetan-3-yl)-3,8-diazabicyclo[3.2.1]octan-3-yl)pyridin-3-yl)ethynyl)benzyl)-3,6,13-trioxo-5-(1,1,1-trifluoro-2-methylpropan-2-yl)-2-oxa-4,7,11,12-tetraazahexadecan-14-yl)carbamate]	8.32	–
